In a melting point compilation (Tetko et al.):

Row | SMILES | melting point [°C]
1 | CCCCCCCCCCOc1ccc(C(C)=O)cc1 | 35 to 37
2 | c1ccc2c(c1)ccc1c3ccccc3ccc21 | 258
3 | CC1CC=CC2C3OC3(C)C(C)C3C(Cc4ccccc4)NC(=O)C23OC(=O)OC=CC(C)(O)C1=O (configuration not stated) | 206
4 | COc1cccc(OCC(=O)O)c1 | 118
5 | NC(CSc1ncccc1C(F)(F)F)=NO | 161 to 164
6 | O=C(CCCN1CCC(n2c(=O)[nH]c3ccccc32)CC1)c1ccc(F)cc1 | 170
7 | CCCCCCCCCCC(C)Br (configuration not stated) | -96
8 | NC(=O)c1ccc(C(N)=O)cc1 | 332
9 | CCCCOC(=O)CC(=O)OCCCC | -83
10 | CCOP(=S)(OCC)Oc1ccc(=O)n(-c2ccccc2)n1 | 56.2
11 | CCOC(=O)COc1cccc2ccccc12 | 56.5
12 | CCCCCCc1ccc(-c2ccccc2)cc1 | 30
13 | N#Cc1c(-c2cccc(O)c2)c(C#N)c(=O)n(N)c1N | 323
14 | N=C(N)S(=O)O | 126
15 | Oc1cccc2sccc12 | 79.8
16 | Nc1ccccc1OC1CCOCC1 | 58 to 61
17 | BrCc1nc2ccccc2nc1CBr | 150 to 154
18 | O=c1oc(-c2c(F)cccc2Cl)cc2ccccc12 | 241
19 | Cn1ccc2c1CCCC2=O | 85
20 | CC(C)CCCC(C)C1CCC2(C)C1(C)CCC13OC21CCC1C(C)C(O)CCC13C (configuration not stated) | 161 to 163
21 | COc1ccc2c(c1)CC2C#N (configuration not stated) | 48 to 56
22 | Cc1ccc(I)cc1F | 23
23 | CCOC(=O)c1c(C)n[nH]c1C | 118 to 119
24 | CC1(c2ccccc2)CC(C(=NNC(N)=S)c2cc3ccccc3o2)C1 (configuration not stated) | 205 to 207
25 | O=C(NC(Cc1c[nH]c2ccccc12)C(=O)O)OCc1ccccc1 (configuration not stated) | 124
26 | CN(C)c1ccc(CNC2=CC(=O)c3ccccc3C2=O)cc1 | 165 to 167

Row | SMILES | melting point [°C]
27 | O=C1c2cc3ccccc3cc2C(=O)c2cc3ccccc3cc21 | 391 to 394
28 | COc1ccccc1-n1[nH]cc2c(=O)ncnc1-2 | 271
29 | CS(=O)(=O)c1nc(Br)c(C#N)c(-c2ccc(Cl)cc2)c1Cl | 158
30 | FC(F)(F)C(F)(F)C(F)(F)C(F)(C(F)(F)F)C(F)(F)F | -119
31 | CC(C)(C)NC(=O)c1ccccc1 | 134
32 | Brc1cccc2cc(C=NNc3ccccc3)ccc12 | 151
33 | Nc1cccnc1O | 118 to 130
34 | O=C(O)CNC(=O)c1ccc([N+](=O)[O-])cc1 | 130
35 | N#Cc1[nH]cnc2ncnc1-2 | 188
36 | S=C=Nc1ccc(Oc2ccccc2)cc1 | 42
37 | CN(N=O)C1=CC(=O)C2(C)CCC1C2(C)C (configuration not stated) | 167
38 | CC1CC2C3CCC4=CC(=O)C=CC4(C)C3C(=O)CC2(C)C1(O)C(=O)CO (configuration not stated) | 202
39 | Cc1nn(C)c(N2CCOCC2)c1N | 156 to 157
40 | S=c1nnc(-c2ccccc2)c(Nc2ccc(Cl)cc2)[nH]1 | 314
41 | COC(=O)c1cnc(SCC(=O)c2ccc(Cl)cc2)n1C | 126 to 127
42 | Cc1ccc(C)n1-c1cc([N+](=O)[O-])ccc1F | 56 to 58
43 | CC(C)(C#N)C(C)(C)C#N | 170
44 | CCOC(=O)CNC(c1ccccc1)(c1ccccc1)c1ccccc1 | 114
45 | CCCCOc1ccc(NC(C)=O)cc1 | 110 to 112
46 | O=C(N[C@H](Cc1cccc(Br)c1)C(=O)O)OCC1c2ccccc2-c2ccccc21 | 146
47 | Clc1ccc(Oc2ccc(Cl)cc2)cc1 | 30
48 | Brc1ccc(Oc2ccc(Br)c(Br)c2Br)c(Br)c1Br | 183
49 | CS(=O)(=O)c1ccc(-c2cn3ccccc3n2)cc1 | 242
50 | COC(=O)c1cccc([N+](=O)[O-])c1O | 131
51 | CC(=O)CCc1oc2ccc(Br)cc2c1-c1ccc(C)o1 | 79
52 | CCCCCC1C(=O)CCC1CC(=O)OC (configuration not stated) | -10

Row | SMILES | melting point [°C]
53 | CC(CC(C)C(=O)O)C(=O)O (configuration not stated) | 104 to 108
54 | COC(=O)c1sccc1N=C=S | 57 to 59
55 | CC1=C(CCC(=O)O)c2cc3nc(cc4[nH]c(cc5[nH]c(cc1n2)c(C)c5C(C)O)c(C)c4C(C)O)C(C)=C3CCC(=O)O (configuration not stated) | 172
56 | CCCCCCCC(=O)OC1CCC2(C)C(=CCC3C2CCC2(C)C(C(C)CCCC(C)C)CCC32)C1 (configuration not stated) | 110
57 | Nc1ccc(CCC(=O)O)cc1 | 134
58 | CC(C)CC(=O)C=Cc1ccccc1 | 43
59 | N#Cc1cccc(I)c1 | 40
60 | COc1c(F)c(F)cc(C(=O)O)c1F | 115
61 | Nc1ccccc1N1CCOCC1 | 98 to 99
62 | CC(C)CCC(C)C | -91
63 | N#CCCP(CCC#N)c1ccccc1 | 73
64 | CCn1cc(C(=O)O)c(=O)c2cnc(N3CCCC3)nc21 | 315
65 | CN1CCN(Cc2cccc(CO)c2)CC1 | 51 to 52
66 | O=C(O)c1sc2sccc2c1Cl | 252 to 258
67 | CC(C)(C)OC(=O)N1CCCN(c2cccc(O)c2)CC1 | 143 to 144
68 | CCCCCCCCCCCCCCCCCC(=O)OCC(O)CO (configuration not stated) | 74
69 | Nc1cccc2cc[nH]c12 | 91
70 | CCCOC(=O)CCC(=O)OCCC | -5.9
71 | O=C(O)c1cc(F)ccc1C(F)(F)F | 82
72 | CCOc1ccc(NC(=O)OC(C)C)cc1OCC | 100
73 | CCOC(=O)c1ccccc1C(=O)OCC | -40.5
74 | COC(=O)c1cc(C(=O)OC)cc([N+](=O)[O-])c1 | 122
75 | C(=Cc1ccccc1)CN1CCNCC1 | 39 to 44
76 | NCCCOCCCN | 151
77 | COc1ccc2cc1Oc1ccc(cc1)CC1c3cc(c(OC)cc3CCN1C)Oc1c(OC)c(OC)cc3c1C(C2)N(C)CC3 (configuration not stated) | 218
78 | BrC(c1ccccc1)C(Br)c1ccccc1 (configuration not stated) | 239

Row | SMILES | melting point [°C]
79 | NCCCCCCNCCCCCCN | 33
80 | OCC1OC(n2cnc3c2N=CNCC3O)CC1O (configuration not stated) | 220
81 | COc1ccc(C2c3cc(OC)c(OC)cc3CCN2C(C)=O)cc1 (configuration not stated) | 105 to 107
82 | CC(=O)OC1CCC2(C)C(CCC3C4=C(CCC32)C(C)(C#Cc2ccccc2)CC4)C1 (configuration not stated) | 135 to 136
83 | CC(Cc1ccc(O)c(O)c1)C(C)Cc1ccc(O)c(O)c1 (configuration not stated) | 186
84 | N#Cc1cn(C2CC2)c(=O)[nH]c1=O | 254 to 258
85 | CC(C)(C)CC(C)(C)c1ccc(O)c(Cc2ccc(Cl)cc2Cl)c1 | 78
86 | O=C(O)c1ccc(F)cc1Cl | 185
87 | CC(=O)c1ccc(O)c(C)c1O | 154
88 | CCCCC(=O)NN | 60
89 | Nc1nc(N)c(N=O)c(N)n1 | 300
90 | Nc1ncc2nc[nH]c2n1 | 280 to 284
91 | O=C(Nc1cccc2ccccc12)C(C(F)(F)F)C(F)(F)F | 224
92 | COC(=O)CCC(C)C1CCC2C3C(=O)C(Br)C4CCCCC4(C)C3CCC12C (configuration not stated) | 123 to 124
93 | CC1(C)OC2CC3C4CCC5=CC(=O)C=CC5(C)C4C(O)CC3(C)C2(C(=O)CO)O1 (configuration not stated) | 274
94 | O=C(O)c1ccc(-n2cccc2)cc1 | 288 to 291
95 | NC(=O)c1ccc(C(=O)O)cc1 | 300
96 | CCCCOCCCN | -65
97 | Clc1nc(-c2ccccc2)nc2ccccc12 | 123 to 128
98 | COC1=CC(=O)CC(C)C12Oc1c(Cl)c(OC)cc(OC)c1C2=O (configuration not stated) | 219
99 | BrCc1ccc(OC2CCOCC2)cc1 | 56 to 58
100 | C1CCCCCC1 | -8
101 | C/C(=N\NC(N)=O)C1=CC[C@]2(C)C3CCC4=C(CCC4(C)C)C3CC[C@H]2C1 (some centres not stated) | 239
102 | CNC(=NO)c1cc(C(C)(C)C)c(O)c(C(C)(C)C)c1 | 200 to 201
103 | CC(=O)Nc1ccc(Cl)cc1[N+](=O)[O-] | 98
104 | O=C(CS(=O)(=O)c1ccccc1)c1ccccc1 | 92 to 95

Row | SMILES | melting point [°C]
105 | O=C=NC1CCC(N=C=O)CC1 (configuration not stated) | 59 to 64
106 | O=C(Oc1ccccn1)Oc1ccccn1 | 90
107 | Nc1cccc(C(=O)O)c1C(=O)O | 170 to 180
108 | Cc1ccc2sc(C(=O)O)cc2c1 | 222 to 223
109 | CC1(C)C=[N+]([O-])C(C)(C)C1 | 53 to 59
110 | NC(CS(=O)(=O)c1ccc(F)cc1)=NO | 180 to 183
111 | CC1=C(c2ccccc2)c2ccccc2C1 | 58 to 58.5
112 | CC(=O)c1c(-c2ccccc2)noc1C | 55 to 58
113 | CC(CCc1ccccc1)NCC(O)c1ccc(O)c(C(N)=O)c1 (configuration not stated) | 190
114 | CCC1(CC)C(=O)NC(=S)NC1=O | 180
115 | C=C1C(C)CCC2(C)C3=C(C(=O)C4(CC4C)C(O)C3=O)C(OC(C)=O)C(O)C12 (configuration not stated) | 195 to 196
116 | O=c1occc2ccccc12 | 47
117 | CC(C)(C)c1cc(C(C)(C)C)cc(C(C)(C)C)c1 | 71
118 | Cc1cc(O)ncc1[N+](=O)[O-] | 189
119 | CC1(C)OC(=O)C2CCCCC21 (configuration not stated) | 80
120 | Nc1cc2nc3c(cc2cc1C=O)CCCC3 | 218
121 | CC(C)n1cc(C#N)c(=O)n(Cc2ccccc2)c1=O | 151 to 154
122 | Cc1cc(C)c(C)c(CO)c1C | 112
123 | CC(C)(C)OC(=O)NN | 39
124 | Cc1cc(=O)oc2cc(OC3OC(CO)C(O)C(O)C3O)ccc12 (configuration not stated) | 248
125 | CCCCCCCCCCCCCC=CC(O)C(CO)NC(=O)CCCCCCCCCCCCCCCCC (configuration not stated) | 99 to 101
126 | O=C(Cl)C12CC3CC(CC(C3)C1)C2 | 51
127 | C=C=N | -78
